According to patent publication US12577255B2, “MDM2-based modulators of proteolysis and associated methods of use” (Arvinas Operations, Inc., priority 2015, dated 2026):

How the values were obtained:
p53 = experiment: Western blot of HCT116 cells, p53 level; format: cell-based, human; settings: Western blot (FIG. 2, FIG. 3)
MDM2 = target: T1, MDM2 (Homo sapiens, UniProt Q00987); experiment: Western blot of HCT116 cells, MDM2 level; format: cell-based; settings: Western blot (FIG. 2, FIG. 3)
T1 construct: Western blot of HCT116 cells treated with chimeric molecules; endogenous in cells; host or cells: HCT116
T1 sequence (Q00987 whole entry): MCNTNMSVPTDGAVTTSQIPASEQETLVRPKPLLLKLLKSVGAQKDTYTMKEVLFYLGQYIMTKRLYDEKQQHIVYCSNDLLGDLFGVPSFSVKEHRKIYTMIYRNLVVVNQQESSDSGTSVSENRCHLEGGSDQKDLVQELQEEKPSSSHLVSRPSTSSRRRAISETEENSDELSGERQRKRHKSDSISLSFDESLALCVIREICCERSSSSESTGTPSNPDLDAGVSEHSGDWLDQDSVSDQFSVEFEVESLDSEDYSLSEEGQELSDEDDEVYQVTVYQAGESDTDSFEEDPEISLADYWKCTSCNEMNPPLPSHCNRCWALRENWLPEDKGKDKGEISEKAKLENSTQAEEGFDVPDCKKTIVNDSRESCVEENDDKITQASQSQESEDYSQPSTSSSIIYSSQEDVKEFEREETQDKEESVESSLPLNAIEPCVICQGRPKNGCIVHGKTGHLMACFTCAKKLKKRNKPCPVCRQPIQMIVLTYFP

[1] = target: T2, bromodomain-containing protein 4 (BRD4) (Homo sapiens, UniProt O60885); experiment: BRD4 Western blot (degradation); format: cell-based; settings: at 1 μM; VCaP cells, 16 h
T2 construct: VCaP cells were chased from ATCC and cultured in Dulbecco's Modified Eagle's Medium; host or cells: VCaP
Description: (§1) The following biological assays were performed to evaluate the protein degradation in various cell types using representative compounds disclosed. The degradation of the following proteins were evaluated: bromodomain-containing protein 4 (BRD4), androgen receptor (AR), c-Myc, c-Jun N-terminal kinases (JNK), and enhancer of zeste homolog 2 (EZH2).
VCaP cells were chased from ATCC and cultured in Dulbecco's Modified Eagle's Medium (ATCC), supplemented with 10% FBS (ATCC) and Penicillin/Streptomycin (Life Technologies). DMSO control and compound treatments (0.03 μM to 1 μM) were performed in 12-well plates for 16 h. cells were harvested, and lysed in RIPA buffer (50 mM Tris pH8, 150 mM NaCl, 1% Tx-100, 0.1% SDS, 0.5% sodium deoxycholate) supplemented with protease and phosphatase inhibitors. Lysates were clarified at 16,000 g for 10 minutes, and protein concentration was determined. Equal amount of protein (20 μg) was subjected to SDS-PAGE analysis and followed by immunoblotting according to standard protocols. The antibodies used were BRD4 (Cell signaling #13440), and Actin (Sigma #5441). Detection reagents were Clarity Western ELC substrate (Bio-rad #170-5060).

androgen receptor (AR) = target: T3, androgen receptor (AR) (Homo sapiens, UniProt P10275); experiment: AR ELISA assay (degradation); format: cell-based; settings: VCaP cells, 16 h
T3 construct: detects endogenous levels of total androgen receptor protein; host or cells: VCaP
T3 sequence (P10275 1-920): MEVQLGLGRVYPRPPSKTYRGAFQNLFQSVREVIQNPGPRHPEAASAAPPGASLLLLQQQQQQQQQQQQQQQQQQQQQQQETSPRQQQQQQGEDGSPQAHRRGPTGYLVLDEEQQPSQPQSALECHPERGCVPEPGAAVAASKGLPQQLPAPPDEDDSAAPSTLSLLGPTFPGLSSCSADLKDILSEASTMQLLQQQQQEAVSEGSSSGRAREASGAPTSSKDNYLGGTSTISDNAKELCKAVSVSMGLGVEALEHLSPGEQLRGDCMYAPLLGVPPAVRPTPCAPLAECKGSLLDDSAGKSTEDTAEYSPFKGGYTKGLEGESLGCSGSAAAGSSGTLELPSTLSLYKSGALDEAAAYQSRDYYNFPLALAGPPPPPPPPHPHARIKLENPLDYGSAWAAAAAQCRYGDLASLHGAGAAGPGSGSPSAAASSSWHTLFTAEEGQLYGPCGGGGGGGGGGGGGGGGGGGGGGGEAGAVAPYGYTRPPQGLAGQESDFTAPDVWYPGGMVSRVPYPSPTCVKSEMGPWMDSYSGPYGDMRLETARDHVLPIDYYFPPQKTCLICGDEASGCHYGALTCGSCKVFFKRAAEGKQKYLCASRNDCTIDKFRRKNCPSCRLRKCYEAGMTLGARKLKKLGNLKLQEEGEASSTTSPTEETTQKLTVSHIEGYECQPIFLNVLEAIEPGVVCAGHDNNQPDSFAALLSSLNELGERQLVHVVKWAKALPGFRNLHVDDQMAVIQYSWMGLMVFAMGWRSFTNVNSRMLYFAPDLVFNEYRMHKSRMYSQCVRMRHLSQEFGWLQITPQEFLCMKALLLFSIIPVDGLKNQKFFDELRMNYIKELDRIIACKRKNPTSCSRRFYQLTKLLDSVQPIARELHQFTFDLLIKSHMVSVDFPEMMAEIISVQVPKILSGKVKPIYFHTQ
Description: as §1
VCaP cells were chased from ATCC and cultured in Dulbecco's Modified Eagle's Medium (ATCC), supplemented with 10% FBS (ATCC) and Penicillin/Streptomycin (Life Technologies). DMSO control and compound treatments (0.0001 μM to 1 μM) were performed in 96-well plates for 16 h. cells were harvested, and lysed with Cell Lysis Buffer (catalog #9803) (20 mM Tris-HCl, pH 7.5, 150 mM NaCl, 1 mM Na2EDTA, 1 mM EGTA, 1% Triton, 2.5 mM sodium pyrophosphate, 1 mM B-glycerophosphate, 1 mM Na3VO4, 1 μg/mL leupeptin. Lysates were clarified at 16,000 g for 10 minutes, and loaded into PathScan AR ELISA (Cell Signaling Catalog #12850). The PathScan Total Androgen Receptor Sanwich ELISA Kit is a solid phase sandwich enzyme-linked immunosorbent assay (ELISA) that detects endogenous levels of total androgen receptor protein. An Androgen Receptor Rabbit mAb has been coated onto the microwells. After incubation with cell lysates, androgen receptor protein is captured by the coated antibody. Following extensive washing, an Androgen receptor Mouse Detection mAbis added to detect the captured androgen receptor protein. Anti-mouse IgG, HRP-linked Antibody is then used to recognize the bound detection antibody. HRP substrate, TMB, is added to develop color. The magnitude of absorbance for the developed color is proportional to the quantity of total androgen receptor protein.

MDM2 up-regulation (MDM2) | Degradation activity BRD4 [1] | AR degradation (%) at 1 µM (androgen receptor (AR)) | SMILES | p53 level increase (p53)
no MDM2 up-regulation | A (0 to 25% degradation at 1 μM) | – | COc1cc(C(=O)NCCOCCOCCOCCOCCNC(=O)C[C@@H]2N=C(c3ccc(Cl)cc3)c3c(sc(C)c3C)-n3c(C)nnc32)ccc1NC(=O)[C@H]1N[C@H](CC(C)(C)C)[C@@](C#N)(c2ccc(Cl)cc2F)[C@@H]1c1cccc(Cl)c1F [Compound A1894, (2S,3R,4S,5R)-3-(3-chloro-2-fluorophenyl)-4-(4-chloro-2-fluorophenyl)-N-{4-[(14-{2-[(9S)-7-(4-chlorophenyl)-4,5,13-trimethyl-3-thia-1,8,11,12-tetraazatricyclo[8.3.0.0^2,^6]-trideca-2(6),4,7,10,12-pentaen-9-yl]acetamido}-3,6,9,12-tetraoxatetradecan-1-yl)carbamoyl]-2-methoxyphenyl}-4-cyano-5-(2,2-dimethylpropyl)pyrrolidine-2-carboxamide] | no p53 level increase
no MDM2 up-regulation | – | – | COc1cc(C(=O)NCCOCCOCCOCC(=O)N[C@H](C(=O)N2C[C@H](O)C[C@H]2C(=O)NCc2ccc(-c3scnc3C)cc2)C(C)(C)C)ccc1NC(=O)[C@H]1N[C@H](CC(C)(C)C)[C@@](C#N)(c2ccc(Cl)cc2F)[C@@H]1c1cccc(Cl)c1F [Compound A1911, (2S,3R,4S,5R)-3-(3-chloro-2-fluorophenyl)-4-(4-chloro-2-fluorophenyl)-4-cyano-5-(2,2-dimethylpropyl)-N-{4-[(2-{2-[2-({[(2S)-1-[(2S,4R)-4-hydroxy-2-({[4-(4-methyl-1,3-thiazol-5-yl)phenyl]methyl}-carbamoyl)pyrrolidin-1-yl]-3,3-dimethyl-1-oxobutan-2-yl]carbamoyl}methoxy)-ethoxy]ethoxy}ethyl)carbamoyl]-2-methoxyphenyl}pyrrolidine-2-carboxamide] | no p53 level increase
no MDM2 up-regulation | – | – | COc1cc(C(=O)NCCOCCOCC(=O)N[C@H](C(=O)N2C[C@H](O)C[C@H]2C(=O)NCc2ccc(-c3scnc3C)cc2)C(C)(C)C)ccc1NC(=O)[C@H]1N[C@H](CC(C)(C)C)[C@@](C#N)(c2ccc(Cl)cc2F)[C@@H]1c1cccc(Cl)c1F [Compound A1908] | no p53 level increase
no MDM2 up-regulation | – | – | COc1cc(C(=O)NCCOCCOCCOCCOCC(=O)N[C@H](C(=O)N2C[C@H](O)C[C@H]2C(=O)NCc2ccc(-c3scnc3C)cc2)C(C)(C)C)ccc1NC(=O)[C@H]1N[C@H](CC(C)(C)C)[C@@](C#N)(c2ccc(Cl)cc2F)[C@@H]1c1cccc(Cl)c1F (single isomer, unassigned) [Compound A1897] | no p53 level increase

Continued, compound first:

SMILES | MDM2 up-regulation (MDM2) | Degradation activity BRD4 [1] | AR degradation (%) at 1 µM (androgen receptor (AR)) | p53 level increase (p53)
COc1cc(C(=O)NCCOCCNC(=O)C[C@@H]2N=C(c3ccc(Cl)cc3)c3c(sc(C)c3C)-n3c(C)nnc32)ccc1NC(=O)[C@H]1N[C@H](CC(C)(C)C)[C@@](C#N)(c2ccc(Cl)cc2F)[C@@H]1c1cccc(Cl)c1F [Compound A1891, (2S,3R,4S,5R)-3-(3-chloro-2-fluorophenyl)-4-(4-chloro-2-fluorophenyl)-N-(4-{[2-(2-{2-[(9S)-7-(4-chlorophenyl)-4,5,13-trimethyl-3-thia-1,8,11,12-tetraazatricyclo[8.3.0.0^2,^6]-trideca-2(6),4,7,10,12-pentaen-9-yl]acetamido}ethoxy)ethyl]carbamoyl}-2-methoxyphenyl)-4-cyano-5-(2,2-dimethylpropyl)pyrrolidine-2-carboxamide] | no MDM2 up-regulation | A (0 to 25% degradation at 1 μM) | – | no p53 level increase
CC(C)(C)C[C@@H]1NC(C(=O)NCCOCCOCCOCCOCCOCCOc2ccc(C(=O)N[C@H]3C(C)(C)[C@H](Oc4ccc(C#N)c(Cl)c4)C3(C)C)cc2)[C@H](c2cccc(Cl)c2F)[C@@]1(C#N)c1ccc(Cl)cc1F (stereo partly drawn) [Compound A1688, 3-(3-chloro-2-fluorophenyl)-4-(4-chloro-2-fluorophenyl)-4-cyano-5-(2,2-dimethylpropyl)-N-[1-(4-{[(1,3-trans)-3-(3-chloro-4-cyanophenoxy)-2,2,4,4-tetramethylcyclobutyl]-carbamoyl}phenyl)-1,4,7,10,13,16-hexaoxaoctadecan-18-yl]pyrrolidine-2-carboxamide] | – | – | 0 to 25% | –
CCOc1cc(C(C)(C)C)ccc1C1=NC(C)(c2ccc(Cl)cc2)C(C)(c2ccc(Cl)cc2)N1C(=O)N1CCN(CCOCCOc2ccc(N3C(=S)N(c4ccc(C#N)c(C(F)(F)F)c4)C(=O)C3(C)C)cc2)CC1 (centres unmarked) [Compound A680, 4-(3-{4-[2-(2-{4-[2-(4-tert-butyl-2-ethoxyphenyl)-4,5-bis(4-chlorophenyl)-4,5-dimethyl-4,5-dihydro-1H-imidazole-1-carbonyl]piperazin-1-yl}ethoxy)ethoxy]phenyl}-4,4-dimethyl-5-oxo-2-sulfanylideneimidazolidin-1-yl)-2-(trifluoromethyl)benzonitrile] | – | – | 0 to 25% | –
COc1cc(C(=O)NCCOCCOCC(=O)N[C@H](C(=O)N2C[C@H](O)C[C@H]2C(=O)NCc2ccc(-c3scnc3C)cc2)C(C)(C)C)ccc1NC(=O)C1NC(CC(C)(C)C)C(C#N)(c2ccc(Cl)cc2F)C1c1cccc(Cl)c1F (mixture of isomers) [Compound A1877, 3-(3-chloro-2-fluorophenyl)-4-(4-chloro-2-fluorophenyl)-4-cyano-5-(2,2-dimethylpropyl)-N-[4-({2-[2-({[(2S)-1-[(2S,4R)-4-hydroxy-2-({[4-(4-methyl-1,3-thiazol-5-yl)phenyl]methyl}carbamoyl)pyrrolidin-1-yl]-3,3-dimethyl-1-oxobutan-2-yl]carbamoyl}methoxy)ethoxy]ethyl}carbamoyl)-2-methoxyphenyl]pyrrolidine-2-carboxamide] | up-regulation of MDM2 | – | – | dose dependent p53 level increase
CC(C)(C)C[C@@H]1NC(C(=O)NCCOCCOCCOc2ccc(C(=O)N[C@H]3C(C)(C)[C@H](Oc4ccc(C#N)c(Cl)c4)C3(C)C)cc2)[C@H](c2cccc(Cl)c2F)[C@@]1(C#N)c1ccc(Cl)cc1F (stereo partly drawn) [Compound A1621, 3-(3-chloro-2-fluorophenyl)-4-(4-chloro-2-fluorophenyl)-4-cyano-5-(2,2-dimethylpropyl)-N-(2-{2-[2-(4-{[(1,3-trans)-3-(3-chloro-4-cyanophenoxy)-2,2,4,4-tetramethylcyclobutyl]carbamoyl}phenoxy)ethoxy]ethoxy}ethyl)pyrrolidine-2-carboxamide] | – | – | 0 to 25% | –
